Test results published in ChEMBL document CHEMBL5543099 (Eur J Med Chem, 2024).
≈ marks a conversion by molar mass, not a printed value. Calls of active or inactive are those of the source. No cut-off for these calls is given here.

How the values were obtained:
Staphylococcus aureus [1] = test: Antimicrobial activity against Staphylococcus aureus ATCC 29213 assessed as inhibition of bacterial growth incubated for 16 to 18 hrs by CLSI protocol based Muller Hinton broth assay; type: functional; conditions: time 16-18 hrs
Enterococcus faecalis = test: Antimicrobial activity against Enterococcus faecalis ATCC 29212 assessed as inhibition of bacterial growth incubated for 16 to 18 hrs by CLSI protocol based Muller Hinton broth assay; type: functional; conditions: time 16-18 hrs
Escherichia coli [2] = test: Antimicrobial activity against Escherichia coli ATCC 25922 assessed as inhibition of bacterial growth incubated for 16 to 18 hrs by CLSI protocol based Muller Hinton broth assay; type: functional; conditions: time 16-18 hrs
[3] = test system: Stenotrophomonas maltophilia; test: Antimicrobial activity against Stenotrophomonas maltophilia ATCC 17808 assessed as inhibition of bacterial growth incubated for 16 to 18 hrs by CLSI protocol based Muller Hinton broth assay; type: functional; conditions: time 16-18 hrs
[4] = Hemolytic activity in defibrinated sheep RBC incubated for 1 hrs; type: toxicity, cell-based, Ovis aries, Erythrocyte; conditions: defibrinated sheep red blood cells
[5] = Hemolytic activity in defibrinated sheep RBC assessed as hemolysis rate at 1280 microg/ml incubated for 1 hrs relative to control; type: toxicity, cell-based, Ovis aries, Erythrocyte; conditions: defibrinated sheep red blood cells, at 1280 µg/mL, read-out: Activity
Staphylococcus aureus [6] = test: Antibacterial activity against Staphylococcus aureus assessed as inhibition of bacterial growth incubated for 6 hrs in presence of defibrinated sheep 50% plasma by CLSI protocol based Muller Hinton broth assay; type: functional
Staphylococcus aureus [7] = test: Antibacterial activity against Staphylococcus aureus assessed as inhibition of bacterial growth incubated for 6 hrs in presence of 50% fetal bovine plasma by CLSI protocol based Muller Hinton broth assay; type: functional
Staphylococcus aureus [8] = test: Antibacterial activity against Staphylococcus aureus assessed as inhibition of bacterial growth by measuring fold change in MIC incubated for 6 hrs in presence of defibrinated sheep 50% plasma by CLSI protocol based Muller Hinton broth assay; type: functional
Staphylococcus aureus [9] = test: Antibacterial activity against Staphylococcus aureus assessed as inhibition of bacterial growth by measuring fold change in MIC incubated for 6 hrs in presence of 50% fetal bovine plasma by CLSI protocol based Muller Hinton broth assay; type: functional
Staphylococcus aureus [10] = test: Antibacterial activity against Staphylococcus aureus assessed as inhibition of bacterial growth by measuring fold change in MIC incubated for 6 hrs in presence of 50% fetal bovine serum by CLSI protocol based Muller Hinton broth assay; type: functional
Staphylococcus aureus [11] = test: Antibacterial activity against Staphylococcus aureus assessed as reduction in bacterial colony incubated upto 24 hrs by time-kill kinetics assay; type: functional
Staphylococcus aureus [12] = test: Antibacterial activity against Staphylococcus aureus assessed as reduction in bacterial colony at 8 times of MIC incubated for 1 hrs by time-kill kinetics assay; type: functional, organism-based
Escherichia coli [13] = test: Antibacterial activity against Escherichia coli assessed as reduction in bacterial colony at 2 times of MIC incubated for 2 to 24 hrs by time kill kinetics assay; type: functional, organism-based; conditions: time 2-24 hrs
Staphylococcus aureus [14] = test: Antimicrobial activity against Staphylococcus aureus ATCC 29213 incubated for 16 to 18 hrs and measured before 9th passage by CLSI protocol based Muller Hinton broth assay; type: functional, organism-based
Staphylococcus aureus [15] = test: Drug resistance, ratio of MIC for Staphylococcus aureus ATCC 29213 incubated for 16 to 18 hrs and measured after 16 passages to MIC for Staphylococcus aureus ATCC 29213 incubated for 16 to 18 hrs; type: functional
Escherichia coli [16] = test: Antibacterial activity against Escherichia coli ATCC 25922 incubated for 16 to 18 hrs and measured before 7th passage by CLSI protocol based Muller Hinton broth assay; type: functional, organism-based
Escherichia coli [17] = test: Drug resistance, ratio of MIC for Escherichia coli ATCC 25922 incubated for 16 to 18 hrs and measured after 25 passage to MIC for Escherichia coli ATCC 25922 incubated for 16 to 18 hrs; type: functional
Staphylococcus aureus [18] = test: Antibacterial activity against persistent Staphylococcus aureus assessed as reduction in bacterial colony at 16 times of MIC measured for 24 hrs by CLSI protocol based Muller Hinton broth assay; type: functional, organism-based
Staphylococcus aureus [19] = test: Anti-biofilm activity against Staphylococcus aureus assessed as reduction in bacterial density at 16 times of MIC incubated for 24 hrs by confocal laser scanning microscopic analysis; type: functional, organism-based
Staphylococcus aureus [20] = test: Anti-biofilm activity against Staphylococcus aureus assessed as reduction in extended colonies in biofilm at 16 times of MIC incubated for 24 hrs by confocal laser scanning microscopic analysis; type: functional, organism-based
Staphylococcus aureus [21] = test: Anti-biofilm activity against Staphylococcus aureus assessed as reduction in bacteria in biofilm at 32 times of MIC incubated for 24 hrs by confocal laser scanning microscopic analysis; type: functional, organism-based
Staphylococcus aureus [22] = test: Anti-biofilm activity against Staphylococcus aureus assessed as punctate distribution of bacteria in biofilm at 32 times of MIC incubated for 24 hrs by confocal laser scanning microscopic analysis; type: functional, organism-based
Cell membrane [23] = test: Induction of Cytoplasmic membrane depolarization in Staphylococcus aureus at 8 to 16 microg/ml incubated for 15 mins by fluorescence microplate reader; type: cell membranes; conditions: dose 8-16 µg/ml
Cell membrane [24] = test: Induction of inner membrane permeabilization in Staphylococcus aureus assessed as fluorescence intensity at 16 microg/ml incubated for 15 mins by PI staining based microplate reader; type: cell membranes; conditions: dose 16.0 µg/ml
Staphylococcus aureus [25] = test: Induction of morphological changes in Staphylococcus aureus assessed as disintegrated membrane blocks at 8 times of MIC incubated for 4 hrs by scanning electron microscopic analysis; type: functional, organism-based
Staphylococcus aureus [26] = test: Induction of morphological changes in Staphylococcus aureus assessed as appearance of aggregated membrane sheets at 8 times of MIC incubated for 4 hrs by scanning electron microscopic analysis; type: functional, organism-based
Staphylococcus aureus [27] = test: Induction of morphological changes in Staphylococcus aureus assessed as irregular spherical appearance at 8 times of MIC incubated for 4 hrs by scanning electron microscopic analysis; type: functional, organism-based
Escherichia coli [28] = test: Induction of morphological changes in Escherichia coli assessed as outer membrane damage at 8 times of MIC incubated for 4 hrs by scanning electron microscopic analysis; type: functional, organism-based
Escherichia coli [29] = test: Induction of morphological changes in Escherichia coli assessed as disintegration of rod shaped cells at 8 times of MIC incubated for 4 hrs by scanning electron microscopic analysis; type: functional, organism-based
Escherichia coli [30] = test: Induction of morphological changes in Escherichia coli assessed as shattering of rod shaped cells at 8 times of MIC incubated for 4 hrs by scanning electron microscopic analysis; type: functional, organism-based
Cell membrane [31] = test: Induction of cell membrane damage in Staphylococcus aureus assessed as nucleic acid leakage at 4 times of MIC incubated for 2 hrs by n ultra-micro-volume spectrophotometric analysis; type: cell membranes
Cell membrane [32] = test: Induction of cell membrane damage in Escherichia coli assessed as nucleic acid leakage at 4 times of MIC incubated for 2 hrs by n ultra-micro-volume spectrophotometric analysis; type: cell membranes
[33] = Cytotoxicity against rat HBZY-1 cells assessed as cell survival rate at 64 microg/ml incubated for 48 hrs by CCK8 assay relative to control; type: toxicity, cell-based; conditions: at 64 µg/mL, read-out: Activity
[34] = Cytotoxicity against human SW620 cells assessed as cell survival rate at 64 microg/ml incubated for 48 hrs by CCK8 assay relative to control; type: toxicity, cell-based, SW-620; conditions: at 64 µg/mL, read-out: Activity
Staphylococcus aureus [35] = test: Antibacterial activity against methicillin resistant Staphylococcus aureus; type: functional
Staphylococcus aureus [36] = test: Drug resistance, ratio of MIC for Staphylococcus aureus ATCC 29213 incubated for 16 to 18 hrs and measured after 2 passages to MIC for Staphylococcus aureus ATCC 29213 incubated for 16 to 18 hrs; type: functional
Staphylococcus aureus [37] = test: Antibacterial activity against methicilin-resistant Staphylococcus aureus assessed as inhibition of bacterial growth incubated for 24 hrs by broth microdilution method; type: functional
Staphylococcus aureus [38] = test: Antibacterial activity against vancomycin intermediate Staphylococcus aureus assessed as inhibition of bacterial growth incubated for 24 hrs by broth microdilution method; type: functional

With `CCCCCCCCNC(=O)C[n+]1ccc(C(=O)N2CCN(c3cc4c(cc3F)c(=O)c(C(=O)O)cn4C3CC3)CC2)cc1.[Br-]` as the compound, how does the MIC (Staphylococcus aureus [1]) read?
The MIC was 2 mg/L.

And the MIC (Enterococcus faecalis)?
Its MIC is 2 mg/L.

And the MIC (Escherichia coli [2])?
The MIC was 2 mg/L.

And the MIC [3]?
Its MIC is 8 mg/L.

What about the HC50 at 1 h [4] of the same compound?
The HC50 at 1 h was > 1280 µg/mL.

What about the hemolysis at 1 h, 1280 microg/ml [5] of the same compound?
Its hemolysis at 1 h, 1280 microg/ml is 5.1%.

What about the MIC (Staphylococcus aureus [6]) of the same compound?
The MIC was 4 mg/L.

What about the MIC (Staphylococcus aureus [7]) of the same compound?
The MIC was 4 mg/L.

What about the “fold change (FC)” value (Staphylococcus aureus [8]) of the same compound?
Its value is 2.

What about the “fold change (FC)” value (Staphylococcus aureus [9]) of the same compound?
Its value is 2.

What about the “fold change (FC)” value (Staphylococcus aureus [10]) of the same compound?
The value was 2.

And the MIC (Staphylococcus aureus [11])?
Its MIC is 2 mg/L.

And the Activity (Staphylococcus aureus [12])?
Its Activity is “Active”.

And the Activity (Escherichia coli [13])?
Its Activity is “Active”.

And the Activity (Staphylococcus aureus [14])?
The Activity was “Active”.

What about the Ratio (Staphylococcus aureus [15]) of the same compound?
Its Ratio is 4.

And the Activity (Escherichia coli [16])?
The Activity was “Active”.

And the Ratio (Escherichia coli [17])?
Its Ratio is 2.

And the Activity (Staphylococcus aureus [18])?
Its Activity is “Active”.

And the Activity (Staphylococcus aureus [19])?
Its Activity is “Active”.

What about the Activity (Staphylococcus aureus [20]) of the same compound?
Its Activity is “Active”.

What about the Activity (Staphylococcus aureus [21]) of the same compound?
The Activity was “Active”.

What about the Activity (Staphylococcus aureus [22]) of the same compound?
Its Activity is “Active”.

And the Activity (Cell membrane [23])?
The Activity was “Active”.

And the Flu intensity (Cell membrane [24])?
Its Flu intensity is 300.

And the Activity (Staphylococcus aureus [25])?
Its Activity is “Active”.

And the Activity (Staphylococcus aureus [26])?
Its Activity is “Active”.

What about the Activity (Staphylococcus aureus [27]) of the same compound?
The Activity was “Active”.

What about the Activity (Escherichia coli [28]) of the same compound?
Its Activity is “Active”.

And the Activity (Escherichia coli [29])?
The Activity was “Active”.

What about the Activity (Escherichia coli [30]) of the same compound?
Its Activity is “Active”.

What about the Activity (Cell membrane [31]) of the same compound?
The Activity was “Active”.

And the Activity (Cell membrane [32])?
The Activity was “Active”.

What about the viability at 48 h, 64 microg/ml [33] of the same compound?
The viability at 48 h, 64 microg/ml was 96.9%.

And the viability at 48 h, 64 microg/ml [34]?
Its viability at 48 h, 64 microg/ml is 68.2%.

Which MIC (Staphylococcus aureus [35]) does the source give for `COc1c2c(cc(F)c1N1CCN(CC(=O)Nc3ncc([N+](=O)[O-])s3)CC1)C(=O)C(C(=O)O)=CC2C1CC1` (stereo not given) here?
Its MIC is 0.01 mg/L (≈ 0.0183 µM).

Which Ratio (Staphylococcus aureus [36]) does the source give for `CCn1cc(C(=O)O)c(=O)c2cc(F)c(N3CCNCC3)cc21` [NORFLOXACIN] here?
Its Ratio is 2.

What about the Ratio (Staphylococcus aureus [15]) of the same compound?
Its Ratio is 64.

For `CCCCCCCC[n+]1ccc(CN[C@@]2(C)C[C@H](O[C@H]3[C@H](Oc4c5cc6cc4Oc4ccc(cc4Cl)[C@@H](O)[C@@H](NC(=O)[C@@H](CC(C)C)NC)C(=O)N[C@@H](CC(N)=O)C(=O)N[C@H]6C(=O)N[C@H]4C(=O)N[C@H](C(=O)N[C@@H](C(=O)O)c6cc(O)cc(O)c6-c6cc4ccc6O)[C@H](O)c4ccc(c(Cl)c4)O5)O[C@H](CO)[C@@H](O)[C@@H]3O)O[C@@H](C)[C@H]2O)cc1`, which MIC (Staphylococcus aureus [37]) is on record?
Its MIC is 0.1 µM.

What about the MIC (Staphylococcus aureus [38]) of the same compound?
The MIC was 0.11 µM.
